Test results from publication PMC8484451, “Characterization of fluorescent probe substrates to develop an efficient high-throughput assay for neonatal hepatic CYP3A7 inhibition screening” (Scientific Reports, 2021).

Tests used:
CYP3A7 [1] = molecular target: T1, CYP3A7 (Homo sapiens, UniProt P24462); experiment: fluorescent DBF O-debenzylation inhibition assay with recombinant CYP3A7; assay type: biochemical
T1 construct: recombinant human CYP3A7 Supersomes (Sf9 insect cell microsomes); with human NADPH-cytochrome P450 reductase and human cytochrome b5 (co-expressed)

CYP3A7 [2] = molecular target: T1, CYP3A7; experiment: Michaelis-Menten kinetics (fluorescence); assay type: biochemical; details: read-out: DBOMF
CYP3A7 [3] = molecular target: T1, CYP3A7; experiment: fluorescent DBF inhibition assay at […]; assay type: biochemical; details: read-out: % inhibition at 20 μM
[4] = substrate: O=C(OCc1ccccc1)c1ccccc1-c1c2ccc(=O)cc-2oc2cc(OCc3ccccc3)ccc12; experiment: Michaelis-Menten kinetics (fluorescence); metabolites by LC-MS/MS; assay type: biochemical, Homo sapiens; details: NADPH likely binds in the CYP3A7 active site mirroring native substrates
[5] = substrate: c1ccc(COc2ccc3cccnc3c2)cc1; experiment: Michaelis-Menten kinetics (fluorescence); assay type: biochemical, Homo sapiens; details: NADPH

**Q.** With `C[C@]12CC[C@H](OS(=O)(=O)O)CC1=CC[C@@H]1[C@@H]2CC[C@]2(C)C(=O)CC[C@@H]12` [DHEA-S] as the molecule, how does the IC50 (CYP3A7 [1]) read?
**A.** Its IC50 is 5.31 µM.

**Q.** Which Km (CYP3A7 [2]) does the source give for `O=C(OCOCc1ccccc1)c1ccccc1-c1c2ccc(=O)cc-2oc2cc(OCOCc3ccccc3)ccc12` [DBOMF, dibenzyloxymethylfluorescein] here?
**A.** Its Km is 1620 nM.

**Q.** `CC(C)CN(C[C@@H](O)[C@H](Cc1ccccc1)NC(=O)O[C@H]1CO[C@H]2OCC[C@H]21)S(=O)(=O)c1ccc(N)cc1` [Darunavir] was tested. Which inhibition at 20 µM (CYP3A7 [3]) did it give?
**A.** Its inhibition at 20 µM is greater than 75%.

**Q.** `Cc1c(O)cccc1C(=O)N[C@@H](CSc1ccccc1)[C@H](O)CN1C[C@H]2CCCC[C@H]2C[C@H]1C(=O)NC(C)(C)C` [Nelfinavir] was tested. Which inhibition at 20 µM (CYP3A7 [3]) did it give?
**A.** The inhibition at 20 µM was greater than 75%.

B1: CYP3A7 (Homo sapiens) (protein)
chain: MDLIPNLAVETWLLLAVSLILLYLYGTRTHGLFKKLGIPGPTPLPFLGNALSFRKGYWTFDMECYKKYRKVWGIYDCQQPMLAITDPDMIKTVLVKECYSVFTNRRPFGPVGFMKNAISIAEDEEWKRIRSLLSPTFTSGKLKEMVPIIAQYGDVLVRNLRREAETGKPVTLKHVFGAYSMDVITSTSFGVSIDSLNNPQDPFVENTKKLLRFNPLDPFVLSIKVFPFLTPILEALNITVFPRKVISFLTKSVKQIKEGRLKETQKHRVDFLQLMIDSQNSKDSETHKALSDLELMAQSIIFIFAGYETTSSVLSFIIYELATHPDVQQKVQKEIDTVLPNKAPPTYDTVLQLEYLDMVVNETLRLFPVAMRLERVCKKDVEINGMFIPKGVVVMIPSYVLHHDPKYWTEPEKFLPERFSKKNKDNIDPYIYTPFGSGPRNCIGMRFALVNMKLALVRVLQNFSFKPCKETQIPLKLRFGGLLLTEKPIVLKAESRDETVSGA
notes: recombinant human CYP3A7 Supersomes (Sf9 insect cell microsomes); with human NADPH-cytochrome P450 reductase and human cytochrome b5 (co-expressed)
**Q.** What does the source list for B1?
**A.** Km [4]: 0.525 µM; kcat [4]: 0.00247 s⁻¹; Km [5]: 0.913 µM; kcat [5]: 0.0217 s⁻¹
